Reference: PMC10780633, “Novel Multi-Target Agents Based on the Privileged Structure of 4-Hydroxy-2-quinolinone” (Molecules, 2023)
Several values for one entry are separate records, joined by “and”; a condition that tells them apart may be missing. Equal entries are not always repeated.

Tests used:
[1] = Non-enzymatic superoxide anion radical scavenging assay (PMS); details: 0.1 mM
Protocol: (§1) In this work, the carboxamides 3a–3u, the quinolinone–cinnamic or benzoic acid hybrids 11a–11g and the reverse amides 16a–16c were tested for their antioxidant activity via five in vitro techniques; (i) the interaction with the stable free radical 2,2-diphenyl-1-picrylhydrazyl (DPPH); (ii) the inhibition of lipid peroxidation; (iii) the hydroxyl radical scavenging ability; (iv) the 2,2-azino-bis(3-ethylbenzothiazoline-6-sulfonic acid (ABTS) radical cation (ABTS·^+) reduction; and (v) the superoxide anion radical scavenging ability.
The experimental technique used for this assay was performed according to our previous works. Caffeic acid was used as an appropriate standard.

[2] = Inhibition of lipid peroxidation of linoleic acid induced by AAPH radical; details: 100 μM
Protocol: as §1
The assay for the determination of the inhibition of linoleic acid peroxidation induced by the free radical initiator […](2-amidinopropane) dihydrochloride (AAPH) was performed according to the methods of Hadjipavlou-Litina et al., which we have also used in our previous works.

[3] = ABTS radical cation decolorization assay; details: 0.1 mM
Protocol: as §1
The experimental technique used in this section was performed according to the methods of Pontiki et al.. The results were compared to the appropriate standard inhibitor Trolox.

[4] = Interaction with the stable free radical DPPH (reducing activity); details: 100 μM
Protocol: as §1

soybean lipoxygenase = target: T1, soybean lipoxygenase (Glycine max, UniProt P08170); assay: Soybean LOX inhibition in vitro (UV absorbance-based assay); type: biochemical; details: for Inhibition of Soybean Lipoxygenase % at 0.1 mM / inhibition at 100 µM: 0.1 mM
T1 construct: purchased Sigma Chemical, Co. (St. Louis, MO, USA)
T1 sequence (P08170 1-839): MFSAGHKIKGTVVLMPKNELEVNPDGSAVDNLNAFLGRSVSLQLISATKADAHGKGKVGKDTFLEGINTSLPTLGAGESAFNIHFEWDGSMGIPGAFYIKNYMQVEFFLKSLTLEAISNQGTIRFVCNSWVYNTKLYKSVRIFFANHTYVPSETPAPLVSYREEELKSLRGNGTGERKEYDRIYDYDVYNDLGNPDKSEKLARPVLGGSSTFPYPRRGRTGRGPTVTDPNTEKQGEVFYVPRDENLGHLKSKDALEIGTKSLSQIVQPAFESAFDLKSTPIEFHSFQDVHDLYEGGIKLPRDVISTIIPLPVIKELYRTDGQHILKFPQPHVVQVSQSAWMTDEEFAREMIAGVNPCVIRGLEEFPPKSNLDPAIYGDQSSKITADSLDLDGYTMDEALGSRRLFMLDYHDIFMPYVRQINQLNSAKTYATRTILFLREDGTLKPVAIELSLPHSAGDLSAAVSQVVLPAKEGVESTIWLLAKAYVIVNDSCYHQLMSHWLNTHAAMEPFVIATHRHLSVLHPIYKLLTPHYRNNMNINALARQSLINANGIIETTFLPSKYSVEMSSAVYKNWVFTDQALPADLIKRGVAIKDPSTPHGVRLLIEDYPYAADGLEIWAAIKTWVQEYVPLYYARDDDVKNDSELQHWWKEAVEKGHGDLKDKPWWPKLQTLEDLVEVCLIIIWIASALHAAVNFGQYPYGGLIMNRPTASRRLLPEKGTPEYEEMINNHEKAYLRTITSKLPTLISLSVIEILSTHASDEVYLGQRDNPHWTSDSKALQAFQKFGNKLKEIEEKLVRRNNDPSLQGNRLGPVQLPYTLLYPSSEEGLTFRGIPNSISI
Protocol: For this study, the UV absorbance-based soybean LOX assay was used.
The assay for the determination of the inhibition of soybean LOX was performed according to the methods of Hadjipavlou-Litina et al., which we have also used in our previous works.

[5] = Competition with DMSO for hydroxyl radicals; details: 0.1 mM
Protocol: as §1
The assay was performed according to the methods of Pontiki et al. Trolox was used as a reference compound [78].

Inhibition of Soybean Lipoxygenase % at 0.1 mM (soybean lipoxygenase)	inhibition at 100 µM (soybean lipoxygenase) [%]	IC50 (soybean lipoxygenase)	Compound	PMS% (superoxide anion radical scavenging) [1]	Inhibition of Lipid Peroxidation of Linoleic Acid Induced by AAPH Radical (%) [2] [%]	ABTS% (ABTS radical cation decolorization) [3]	Interaction with the Free Radical DPPH (%) ([4]; 20 min)	Interaction with the Free Radical DPPH (%) ([4]; 60 min)	OH% (hydroxyl radical scavenging) [5] [%]
		61 µM	CCn1c(=O)c(C(=O)NCCNC(=O)c2ccc(OC(C)=O)cc2)c(O)c2ccccc21 [Compound 11a, 4-((2-(1-ethyl-4-hydroxy-2-oxo-1,2-dihydroquinoline-3-carboxamido)ethyl)carbamoyl)phenyl acetate]		89.0		1.0%	4.4%	
		70 µM	CCn1c(=O)c(C(=O)NCCNC(=O)c2cc(OC)c(OC(C)=O)c(OC)c2)c(O)c2ccccc21 [Compound 11b, 4-((2-(1-ethyl-4-hydroxy-2-oxo-1,2-dihydroquinoline-3-carboxamido)ethyl)carbamoyl)-2,6-dimethoxyphenyl acetate]		93.8		3.0%	no	
		57.5 µM	CCn1c(=O)c(C(=O)NCCNC(=O)c2ccccc2)c(O)c2ccccc21 [Compound 11c, N-(2-benzamidoethyl)-1-ethyl-4-hydroxy-2-oxo-1,2-dihydroquinoline-3-carboxamide]		91.0		2.0%	2.0%	
	5		CCn1c(=O)c(C(=O)NCCNC(=O)/C=C/c2ccc(OC(C)=O)cc2)c(O)c2ccccc21 [Compound 11d, (E)-4-(3-((2-(1-ethyl-4-hydroxy-2-oxo-1,2-dihydroquinoline-3-carboxamido)ethyl)amino)-3-oxoprop-1-en-1-yl)phenyl acetate]		94.0		3.0%	2.0%	
		52 µM and 52.5 µM	CCn1c(=O)c(C(=O)NCCNC(=O)/C=C/c2ccc(OC(C)=O)c(OC)c2)c(O)c2ccccc21 [Compound 11e, (E)-4-(3-((2-(1-ethyl-4-hydroxy-2-oxo-1,2-dihydroquinoline-3-carboxamido)ethyl)amino)-3-oxoprop-1-en-1-yl)-2-methoxyphenyl acetate]		97.0		3.0%	5.0%	
		70 µM	CCn1c(=O)c(C(=O)NCCNC(=O)/C=C/c2ccc(OC)cc2)c(O)c2ccccc21 [Compound 11f, (E)-1-ethyl-4-hydroxy-N-(2-(3-(4-methoxyphenyl)acrylamido)ethyl)-2-oxo-1,2-dihydroquinoline-3-carboxamide]		93.0		2.0%	4.0%	
		85.5 µM	CCn1c(=O)c(C(=O)NCCNC(=O)/C=C/c2ccccc2)c(O)c2ccccc21 [Compound 11g, (E)-N-(2-cinnamamidoethyl)-1-ethyl-4-hydroxy-2-oxo-1,2-dihydroquinoline-3-carboxamide]		97.0		no	2.0%	
		81 µM	CCCC(=O)Nc1c(O)c2ccccc2n(C)c1=O [Compound 16a, N-(4-hydroxy-1-methyl-2-oxo-1,2-dihydroquinolin-3-yl)butyramide]		83.0		24.0%	31.0%	
		100 µM	Cc1ccc(C(=O)Nc2c(O)c3ccccc3n(C)c2=O)cc1 [Compound 16b, N-(4-hydroxy-1-methyl-2-oxo-1,2-dihydroquinolin-3-yl)-4-methylbenzamide]		88.0		27.0%	32.0%	
		82.5 µM	Cn1c(=O)c(NC(=O)c2ccccc2O)c(O)c2ccccc21 [Compound 16c, 2-hydroxy-N-(4-hydroxy-1-methyl-2-oxo-1,2-dihydroquinolin-3-yl)benzamide]		88.0		25.0%	28.0%	

Second part, the compound before the results:

Compound	Inhibition of Soybean Lipoxygenase % at 0.1 mM (soybean lipoxygenase)	inhibition at 100 µM (soybean lipoxygenase) [%]	IC50 (soybean lipoxygenase)	PMS% (superoxide anion radical scavenging) [1]	Inhibition of Lipid Peroxidation of Linoleic Acid Induced by AAPH Radical (%) [2] [%]	ABTS% (ABTS radical cation decolorization) [3]	Interaction with the Free Radical DPPH (%) ([4]; 20 min)	Interaction with the Free Radical DPPH (%) ([4]; 60 min)	OH% (hydroxyl radical scavenging) [5] [%]
4-hydroxy-N-(2-hydroxy-1-phenylethyl)-1-methyl-2-oxo-1,2-dihydroquinoline-3-carboxamide [Compound 3p]	no			no	100	no	19.5%	6.6%	
4-hydroxy-N-(2-hydroxy-1-phenylethyl)-2-oxo-1-phenyl-1,2-dihydroquinoline-3-carboxamide [Compound 3q]	24.0%			no	100	no	23.8%	10.0%	
O=C(O)/C=C/c1ccc(O)c(O)c1 [Caffeic acid, reference compound]				23%					
CCCNC(=O)c1c(O)c2ccccc2n(-c2ccccc2)c1=O [Compound 3b, 4-hydroxy-2-oxo-1-phenyl-N-propyl-1,2-dihydroquinoline-3-carboxamide]		45		84.6%	100	35.5%	2.7%	11.8%	40.8
Cn1c(=O)c(C(=O)NCCO)c(O)c2ccccc21 [Compound 3c, 4-hydroxy-N-(2-hydroxyethyl)-1-methyl-2-oxo-1,2-dihydroquinoline-3-carboxamide]			52 µM	76.9%	100	25.6%	3.3%	10.7%	39.8
Cn1c(=O)c(C(=O)Nc2ccc(O)cc2)c(O)c2ccccc21 [Compound 3f, 4-hydroxy-N-(4-hydroxyphenyl)-1-methyl-2-oxo-1,2-dihydroquinoline-3-carboxamide]			49 µM		100	77.3%	39.3%	48.6%	67.7
O=C(Nc1ccncc1)c1c(O)c2ccccc2n(-c2ccccc2)c1=O [Compound 3u, 4-hydroxy-2-oxo-1-phenyl-N-(pyridin-4-yl)-1,2-dihydroquinoline-3-carboxamide]	inactive and no			no	16.4	no	19.3%	8.3%	
C[C@H](Cc1ccc(O)c(O)c1)[C@@H](C)Cc1ccc(O)c(O)c1 [NDGA, nordihydroguaiaretic acid, reference compound]							83.0%	94.0%	
Cc1c(C)c2c(c(C)c1O)CCC(C)(C(=O)O)O2 (stereo not drawn) [Trolox, reference compound]					88.0	93.0%			82.0
